From US20040009899A1, “Treating dominant disorders” (priority 2002, published 2004)

Legend:
R6/2 mice = assay: Bar test to assess motor skill; assay type: in vivo, mouse; conditions: compared to untreated or saline treated R6/2 mice
Text: Bar test to assess motor skill: Each mouse was held by its tail and allowed to grasp a bar (0.25 cm in diameter, 60 cm long) suspended 30 cm above a padded bench. After the mouse had firmly grasped the bar, the test was begun by releasing its tail. The mouse was allowed two minutes to “escape” by climbing along the bar to one of the bar supports. The mouse was given both performance and time ratings. Performance ratings were based on the following scale: 0, unable to hold bar; 1, holds bar, unable to bring hind limbs to bar; 2, holds bar, draws hind limbs to bar (i.e., 3 paws firmly on bar); 3, holds bar, moves along bar (i.e., moves at least 2 inches in a coordinated manner along bar); 4, escapes (i.e., mouse touches a bar support with one paw). Time ratings were based on the following scale: 0, unable to hold bar (0-3 seconds); 1, holds bar for 4-30 seconds; 2, holds bar for 31-60 seconds; 3, holds bar for 61-90 seconds; 4, holds bar for 91-120 seconds. If the mouse had not reached one of the bar supports by the end of the two minute test period it was removed from the bar. […]
At 9 weeks of age, the mice in each group received saline (group 1) or HDs at 2.0 mg/kg, 5.0 mg/kg, or 20.0 mg/kg (groups 2, 3, and 4, respectively) by i.p. injection every 48 hours. […] Weight stability, clasping behavior, motility, and motor skill were assessed weekly during the treatment period. […]

[1] = tested on: endogenous mouse Hdh allele; assay: Western immunoblot of endogenous mouse htt expression in PNA-treated R6/1 mice; assay type: in vivo; conditions: any tissue examined (striatum, liver), any tested time point (4 or 6 days)
Method: Cannulation and microsurgery—method 1: B6CBA, R6/1, and R6/2 mice were obtained from The Jackson Laboratory (Bar Harbor, Me.). Mice were anesthetized via intraperitoneal (i.p.) injection with 100 mg/kg of a ketamine/xylazine solution containing 8 mg/mL ketamine and 1 mg/mL xylazine in 0.9% saline. Once anesthetized, each mouse was cannulated. Each anesthetized mouse was placed in a Stoelting Stereotaxic Frame with a mouse adapter (Stoelting Instruments, Wood Dale, Ill.). An incision was made using a scalpel, and the skin and tissue were pulled back with swabs to reveal the skull. The cannulation site was positioned for optimum access to the ventricle, at coordinates AP −0.2 mm, Horiz −1 mm from bregma. A cannula entry port and two bone screw ports were opened in the skull using a Dremel Flex Shaft Drill (Stoelting Instruments) with a 2.1 mm burr for the guide cannula port and a 0.7 mm burr for the bone screws (Fine Science Tools, Foster City, Calif.). Two 4.0 mm long bone screws (0.85 diameter) were placed far enough into the bone screw ports to fasten securely. […]
Following the treatment period, mice were anesthetized with ether and sacrificed by cervical dislocation. […] Following centrifugation, the supernatants were removed and protein concentrations were quantified by Bradford assays using a BSA standard. […]

Substance: HDs: sense PNA oligomer, 14 residues, 5′-GGACTGCCGTGCCG-3′ (SEQ ID NO:3), specific for the expanded human HD allele (all peptide nucleic acid (PNA))
- motor skill (bar test) (R6/2 mice; 5.0 mg/kg i.p. every 48 hours): increased motor skill
- motor skill (bar test) (R6/2 mice; 20.0 mg/kg i.p. every 48 hours): increased motor skill
- effect on expression of the endogenous mouse Hdh allele [1]: Neither HDs nor HDscr had any effect
